# Results taken from patent publication EP0385445A2, “Method of forming a suspension and composition formed by said method” (Horikoshi, Isamu, priority 1989, dated 1990).
# Where a SMILES comes first, the peptide text is derived from it. Bridges are numbered along the chain shown (N, C = ends).
# Legend:
# [1] = Concentration of eel calcitonin in blood after injection into the duodenum (Example 11); type: in vivo, Wistar male rats; settings: male, Wistar, rat, 50 ug per rat, 100 µg/ml, 0.5 ml into the duodenum
# Protocol: Wistar male rats each weighing ca. 200 g were cannulated at the duodenum and tail vein under anesthetization with either and restrained in Bollman cages. […] A control group was injected with 0.5 ml of PBS(-), and a calcitonin control group was injected with 0.5 ml of a solution of calcitonin in phosphate buffer saline (100 µg/ml). Blood samples were taken from these control-groups according to the same schedule as in the case of the emulsion treated group. Thirty minutes before the administration of calciton, calcium chloride in physiological saline was administered intraperitoneally in an amount of 60 mg/kg in order to stimulate the secretion of endogenous calcitonin. Each rat group consisted of 6 animals.
# [2] = Oral absorption of lipid-soluble drugs reduced to microspheres with MFGM; settings: drug reduced to microspheres with MFGM
# [3] = Measurement of emulsion activity (light transmittance); type: physicochemical; settings: emulsion containing the labelled fat or oil; Fig. 6
# Protocol: After heating at 40 - 45°C for 5 minutes, the mixture was stirred with a Polytron homogenizer at a maximum speed for 1 minute to obtain an emulsion (which contained 5 wt% of the oil).
# Each of the emulsions was put into a test tube, which was readjusted to a vertical position and left to stand at room temperature. At given time intervals, 0.2-ml portions of each emulsion were collected from the bottom of the test tube and mixed with 3.8 ml of an aqueous solution of 0.1% sodium dodecylsulfate. The light transmittance of each sample was measured under various conditions and the results of measurements are shown in Figs. 3 - 6.
# [4] = Absorption of vitamin A through lymphatic vessels after injection of emulsions into the loop of small intestines; type: in vivo, Wistar male rats
# Protocol: Wistar male rats each weighing about 400 g were starved for 24 hours. The starved rats were anesthetized by intraperitoneal administration of pentobarbital. Thereafter, the rats were incised in the belly and silicon cannulas were inserted into the area between the pylorus of the stomach and the duodenum and into the ileocecal area. Through the upper cannula, liquid drugs (5 ml) composed of the emulsions prepared in Example 1 were injected into the loop of small intestines (duodenum, jejunum and ileum) and the cannula was closed with a clamp.
# Blood and lymph fluid were collected from the hip artery and the lymph in the thoracic duct at given time intervals and the concentrations of vitamin A in the two fluids were measured. A similar experiment was conducted on biliary fistula rats from which bile was excreted through a cannula inserted into the bile duct, and comparison was made with intact rats which had not received such a treatment.
# […] After extraction with cyclohexane, the concentration of vitamin A in each sample was measured by fluorometry at 480 nm with fluorescence excited at 340 nm. After being absorbed by the small intestines, vitamin A forms chylomicron, the greater part of which is known to be transferred into the lymph system, not the blood system.
# [5] = rat, in vivo
# Protocol: Wistar male rats each weighing ca. 300 g were starved overnight. Thereafter, their skin above the right common carotid artery was incised and a cannula was inserted into the artery. […] The so prepared emulsion was administered orally to the rats. […] The dose of hydrocortisone was 1.5 mg/kg. After hydrocortisone administration, blood samples were taken at regular time intervals. Feces and urine were collected and the rats were killed 49 hours after the administration. The digestive tracts, their contents and various organs were separated and the content of hydrocortisone in each site was determined by radioactivity measurement.
molecule,measurement,setting,value
CC(C)C[C@H](NC(=O)[C@H](CCCCN)NC(=O)CNC(=O)[C@H](CC(C)C)NC(=O)[C@@H](NC(=O)[C@@H]1CSSC[C@H](N)C(=O)N[C@@H](CO)C(=O)N[C@@H](CC(N)=O)C(=O)N[C@@H](CC(C)C)C(=O)N[C@@H](CO)C(=O)N[C@@H]([C@@H](C)O)C(=O)N1)C(C)C)C(=O)N[C@@H](CO)C(=O)N[C@@H](CCC(N)=O)C(=O)N[C@@H](CCC(=O)O)C(=O)N[C@@H](CC(C)C)C(=O)N[C@@H](Cc1c[nH]cn1)C(=O)N[C@@H](CCCCN)C(=O)N[C@@H](CC(C)C)C(=O)N[C@@H](CCC(N)=O)C(=O)N[C@H](C(=O)N[C@@H](Cc1ccc(O)cc1)C(=O)N1CCC[C@H]1C(=O)N[C@@H](CCCNC(=N)N)C(=O)N[C@H](C(=O)N[C@@H](CC(=O)O)C(=O)N[C@H](C(=O)NCC(=O)N[C@@H](C)C(=O)NCC(=O)N[C@H](C(=O)N1CCC[C@H]1C(N)=O)[C@@H](C)O)C(C)C)[C@@H](C)O)[C@@H](C)O [Calcitonin treated] (H-CSNLSTCVLGKLSQELHKLQTYPRTDVGAGTP-NH2; disulfide 1-7 (inferred); N-terminus and C-terminus assumed),level at 0 h,[1]; 0,0.1 ± 0.08 ng/mL
same,level at 0.5 h,[1]; 30 min.,0.7 ± 0.09 ng/mL
same,level at 1 h,[1]; 60 min.,0.7 ± 0.22 ng/mL
same,level at […],[1]; 90 min.,0.8 ± 0.31 ng/mL
same,level at 2 h,[1]; 120 min.,0.6 ± 0.4 ng/mL
COC1=C(OC)C(=O)C(CCCCCCCCCCO)=C(C)C1=O [avan],ability of MFGM to promote the absorption,[2],also observed
CCCCCCCC/C=C\CCCCCCCC(=O)OCC(O)CO (stereo not drawn) [monoolein],increase in emulsion activity,[3],least increase
CCCCCCCC/C=C\CCCCCCCC(=O)O [oleic acid],increase in emulsion activity,[3],highest increase
same,concentration of vitamin A in lymph (ranking),"[4]; intact rats, emulsion in labelled fat or oil, content 5%, vitamin A 2.5 mg per rat, Fig. 9",lowest level
Tween 80,residual in the body,[5],12.41 % of dose
vitamin A,concentration of vitamin A in lymph,"[4]; rat, in vivo",dropped to very low levels
same,vitamin A in the blood,"[4]; rat, in vivo",hardly detectable
